Measurements as given in publication PMC3094704, “S-Petasin, the Main Sesquiterpene of Petasites formosanus, Inhibits Phosphodiesterase Activity and Suppresses Ovalbumin-Induced Airway Hyperresponsiveness” (Evidence-based Complementary and Alternative Medicine : eCAM, 2011).

Experiments:
[1] = system: isolated sensitized guinea pig trachea; assay: OVA-induced tracheal contractions and baseline tension in vitro
Experimental: Male Hartley guinea pigs (500–600 g) were sensitized by intramuscular injections of 0.7 mL of 5% (w/v) OVA in saline on Days 1, 4 and 43, and in adjuvant on Days 25 and 39 into each thigh, according to a method described by Underwood et al. and modified by us. Three days after the last injection, sensitized guinea pigs were sacrificed by cervical dislocation, and their tracheas removed. Each trachea was cut into six segments. Each segment consisted of three cartilage rings. All segments were cut open opposite the trachealis. […] Tissues were suspended in normal Krebs solution under an initial tension of 1.5 g and allowed to equilibrate for at least 1 h with washing at 15-min intervals. After the tissues were precontracted with KCl (60 mM) and washed with normal Krebs solution, OVA (0.1–100 μg/mL) was cumulatively added, and contractions were allowed to reach a steady state at each concentration. […] Therefore, the log concentration-response curves of OVA were constructed in the absence and presence of S-petasin. The tension of the precontraction induced by KCl was set as 100%.

[2] = system: OVA-sensitized and challenged BALB/c mice; assay: Cytokines in BALF (CBA flow cytometry); type: in vivo, mouse
Experimental: (§1) Ten female BABL/c mice in each group were sensitized by an intraperitoneal (i.p.) injection of 20 μg of OVA emulsified in 2.25 mg aluminum hydroxide gel in a total volume of 100 μL on days 0 and 14. The mice were challenged via the airway by 1% OVA in saline for 30 min on Days 28, 29 and 30 by ultrasonic nebulization. Six weeks after the last of three primary OVA challenges, the mice were exposed to 1% OVA for 30 min by nebulization as a secondary challenge. AHR was assessed on Day 74 (48 h after 1% OVA provocation) in each group. […] For comparison, sham-treated mice were sensitized but challenged with saline instead of 1% OVA (non-challenged). The vehicle, a mixture of alcohol : DMSO : 30% HPβCD : saline (0.5 : 0.5 : 1 : 8 , v/v), or S-petasin was injected at a volume of 0.01 mL/g of body weight. AHR was measured in unrestrained animals by barometric plethysmography using a whole-body plethysmograph (WBP) and analyzed using software of Life Science Suite P3 Analysis Modules (Gould, LDS Test and Measurement LLC, Valley View, OH, USA). The mice were placed into the main chamber of the WBP, and the baseline enhanced pause (P enh) value was determined. Then the mice were nebulized first with phosphate-buffered saline (PBS), and subsequently with increasing doses (6.25–50 mg/mL) of MCh for 3 min for each nebulization, followed by readings of breathing parameters for 3 min after each nebulization with determination of P enh values. Twenty-four hours after the P enh determination, these mice were anesthetized with pentobarbital (50 mg/kg, i.p.), and lavaged via a tracheal tube with PBS (1 × 1.0 mL, 37°C). After lavage, blood was collected from the jugular vein and allowed to sit so that it would coagulate. The collected bronchoalveolar lavage fluid (BALF) and coagulated blood were, respectively, centrifuged at 630 g for 7 min and at 3700 g for 10 min at 4°C, respectively. After centrifugation, the supernatants of BALF and serum were stored at −20°C until the determinations of cytokines, including interleukin (IL)-2, IL-4, IL-5, tumor necrosis factor (TNF)-α and interferon (IFN)-γ by flow cytometric methods using mouse Th1/Th2 cytokine CBA kits, of total immunoglobulin E (IgE), and of total IgG2a using enzyme-linked immunosorbent assay (ELISA) kits (Pharmingen, San Diego, CA, USA) according to the respective recommendations of the manufacturer. OVA-specific IgE was measured as described previously with some modifications. Wells were coated with 100 μL of OVA (20 μg/mL) instead of the capture antibody. Levels are expressed in arbitrary units, where one arbitrary unit equals the optical density of the sample divided by the optical density of unchallenged mouse serum or BALF (standard). The pellet from BALF was re-suspended in ACK lysing buffer (1.658 g NH4Cl, 0.2 g KHCO3 and 1.44 mg EDTA in 200 mL of water) to lyse the residual erythrocytes in each sample. The number of inflammatory cells was counted using a hemocytometer (Hausser Scientific, Horsham, PA, USA). Cytospun slides were stained and differentiated in a blinded fashion by counting at least 100 cells under light microscopy.

PDE5 = target: T1, PDE5 (Cavia porcellus, UniProt H0VD23); assay: Inhibition of PDE5 activity (two-step radioenzymatic assay); type: biochemical, guinea pig; settings: mean ± SEM (n); read-out: IC50 on PDE isozyme 5
T1 construct: partially separated from guinea pig lungs and hearts; from tissue; host or cells: guinea pig lungs and hearts
Experimental: Activities of PDE1–5, partially separated from guinea pig lungs and hearts according to the method described by Ko et al., were measured with a two-step procedure according to the method of Thompson and Appleman, using cAMP with [^3H]-cAMP or cGMP with [^3H]-cGMP as substrates. The enzyme pμreparation (25 μL) was incubated for 30 min at 37°C in a total assay volume of […] containing 50 mM Tris-HCl (pH 7.4), 3 mM MgCl2, 1 mM dithiothreitol, 0.05% BSA, 1 μM cAMP with 0.2 μCi [^3H]-cAMP as a substrate alone or in the presence of 0.1 units calmodulin with 10 μM CaCl2 or 5 μM cGMP, and 1 μM cGMP with 0.2 μCi [^3H]-cGMP as another substrate alone or in the presence of 0.1 units calmodulin with 10 μM CaCl2. […] The reagents and homogenate were mixed on ice, and the reaction was initiated by transferring the mixture to a water bath at 37°C. Following a 30-min incubation, the reaction was stopped by transferring the reaction vessel to a bath of boiling water for 3 min. After cooling on ice, 20 μL of a 1 mg/mL solution of C. atrox snake venom was added to the reaction mixture, and the mixture was incubated at 37°C for 10 min. Unreacted [^3H]-cAMP or [^3H]-cGMP was removed by the addition of 500 μL of a 1-in-1 Tris-HCl (40 mM) buffer suspension of Dowex resin (1 × 8-200) with incubation on ice for 30 min. […]

[3] = system: OVA-sensitized and challenged BALB/c mice; assay: IgG2a and IgE in serum and BALF (ELISA); type: in vivo, mouse
Experimental: as §1

PDE3 = assay: Inhibition of PDE3 activity and Lineweaver-Burk analysis; type: biochemical, guinea pig
Experimental: Activities of PDE1–5, partially separated from guinea pig lungs and hearts according to the method described by Ko et al., were measured with a two-step procedure according to the method of Thompson and Appleman, using cAMP with [^3H]-cAMP or cGMP with [^3H]-cGMP as substrates. The enzyme pμreparation (25 μL) was incubated for 30 min at 37°C in a total assay volume of […] containing 50 mM Tris-HCl (pH 7.4), 3 mM MgCl2, 1 mM dithiothreitol, 0.05% BSA, 1 μM cAMP with 0.2 μCi [^3H]-cAMP as a substrate alone or in the presence of 0.1 units calmodulin with 10 μM CaCl2 or 5 μM cGMP, and 1 μM cGMP with 0.2 μCi [^3H]-cGMP as another substrate alone or in the presence of 0.1 units calmodulin with 10 μM CaCl2. […] The reagents and homogenate were mixed on ice, and the reaction was initiated by transferring the mixture to a water bath at 37°C. Following a 30-min incubation, the reaction was stopped by transferring the reaction vessel to a bath of boiling water for 3 min. After cooling on ice, 20 μL of a 1 mg/mL solution of C. atrox snake venom was added to the reaction mixture, and the mixture was incubated at 37°C for 10 min. Unreacted [^3H]-cAMP or [^3H]-cGMP was removed by the addition of 500 μL of a 1-in-1 Tris-HCl (40 mM) buffer suspension of Dowex resin (1 × 8-200) with incubation on ice for 30 min. Each tube was then centrifuged for 2 min at 3700 g, and 150 μL of the supernatant was removed for liquid scintillation counting. […] The total protein in each fraction used was assayed according to the method described by Bradford. The PDE activities are shown as nmol/mg/min in the Lineweaver-Burk analysis.

[4] = 30 μmol/kg s.c., exception at 10 μmol/kg

**Q.** `C=C(C)[C@@H]1C[C@@]2(C)C(=CC1=O)CC[C@@H](OC(=O)/C=C\SC)[C@@H]2C` [S-Petasin] was tested. Which “OVA (100 μg/mL)-induced contractions” value ([1]; 30–100 μM, 15 min preincubation) did it give?
**A.** Its value is “did not significantly inhibit”.

**Q.** And the Baseline tension ([1]; 30–300 μM)?
**A.** The Baseline tension was “concentration-dependently and significantly relaxed”.

**Q.** What about the “Increase in IL-4 level in BALF” value [2, 4] of the same compound?
**A.** Its value is “significantly suppressed”.

**Q.** What about the “Increase in IFN-γ level in BALF” value ([2]; 10–30 μmol/kg s.c.) of the same compound?
**A.** The value was “significantly suppressed”.

**Q.** And the “Increase in IL-2 level in BALF” value ([2]; 10–30 μmol/kg s.c.)?
**A.** Its value is “significantly suppressed”.

**Q.** And the “Increase in IL-5 level in BALF” value ([2]; 10–30 μmol/kg s.c.)?
**A.** The value was “significantly suppressed”.

**Q.** And the “Increase in TNF-α level in BALF” value ([2]; 10–30 μmol/kg s.c.)?
**A.** Its value is “significantly suppressed”.

**Q.** What about the IC50 (PDE5) of the same compound?
**A.** The IC50 was over 100 µM.

**Q.** What about the “Reduction of total IgG2a level in the serum” value ([3]; 30 μmol/kg s.c.) of the same compound?
**A.** The value was “significantly reversed”.

**Q.** And the “Enhancement of total IgE in the BALF” value [3, 4]?
**A.** Its value is “dose-dependently and significantly suppressed”.

**Q.** And the “Enhancement of OVA-specific IgE in the BALF” value ([3]; 10–30 μmol/kg s.c.)?
**A.** The value was “dose-dependently and significantly suppressed”.

**Q.** What about the “Enhancement of OVA-specific IgE in the serum” value ([3]; 10–30 μmol/kg s.c.) of the same compound?
**A.** Its value is “dose-dependently and significantly suppressed”.

**Q.** And the “Enhancement of total IgE in the serum” value ([3]; 10–30 μmol/kg s.c.)?
**A.** The value was “dose-dependently and significantly suppressed”.

**Q.** What about the Ki (PDE3; Lineweaver-Burk analysis, cAMP substrate, read-out: Ki on PDE isozyme 3) of the same compound?
**A.** The Ki was 25.3 ± 2 µM.

**Q.** And the “Mode of inhibition of PDE3 activity” value (PDE3; Lineweaver-Burk analysis, S-petasin 3–30 μM, milrinone 0.3–3 μM)?
**A.** The value was “competitively inhibited”.

**Q.** And the IC50 (PDE3; mean ± SEM (n), read-out: IC50 on PDE isozyme 3)?
**A.** The IC50 was 25.5 ± 1.5 µM.
